Source: patent EP0326526A1, “Aminoketones of substituted dibenzo- and pyridobenzo-azepinones and pharmaceutical compositions” (ISTITUTO DE ANGELI S.p.A., priority 1988, dated 1989)

Columns and labels:
[1] = molecular target: T1, M₂ muscarinic receptors (heart) (Rattus norvegicus, UniProt P10980); assay: Muscarinic M₂ receptor binding: displacement of ³H-NMS from total heart homogenate; settings: read-out: IN VITRO RECEPTOR BINDING TEST KD M₂ (heart)
T1 construct: displacement of ³H-NMS from total heart homogenate; from tissue; rat inferred
T1 sequence (P10980 1-466): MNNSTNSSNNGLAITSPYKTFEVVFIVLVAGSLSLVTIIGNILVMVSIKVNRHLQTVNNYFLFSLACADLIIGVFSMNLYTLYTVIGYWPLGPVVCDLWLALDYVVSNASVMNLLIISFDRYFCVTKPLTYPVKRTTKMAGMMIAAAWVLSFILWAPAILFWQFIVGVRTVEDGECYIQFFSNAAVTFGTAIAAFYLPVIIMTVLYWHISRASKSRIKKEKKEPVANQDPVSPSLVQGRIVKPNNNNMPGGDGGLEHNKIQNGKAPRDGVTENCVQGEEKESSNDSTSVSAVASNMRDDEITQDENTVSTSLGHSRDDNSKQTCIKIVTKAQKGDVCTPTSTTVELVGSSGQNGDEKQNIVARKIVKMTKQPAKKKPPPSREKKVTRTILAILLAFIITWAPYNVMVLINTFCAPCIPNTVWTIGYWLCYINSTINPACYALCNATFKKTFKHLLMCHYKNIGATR

[2] = molecular target: T2, M₁ muscarinic receptors (cerebral cortex) (Rattus norvegicus, UniProt P08482); assay: Muscarinic M₁ receptor binding: displacement of ³H-pirenzepine from cerebral cortex homogenate; design: species or system male CD-COOBBS rats; settings: competition against 0.5 nM ³H-pirenzepine, 45 min at 30°C, read-out: IN VITRO RECEPTOR BINDING TEST KD M₁ (cortex)
T2 construct: displacement of ³H-pirenzepine from cerebral cortex homogenate; from tissue; host or cells: rat cerebral cortex homogenate
T2 sequence (P08482 1-460): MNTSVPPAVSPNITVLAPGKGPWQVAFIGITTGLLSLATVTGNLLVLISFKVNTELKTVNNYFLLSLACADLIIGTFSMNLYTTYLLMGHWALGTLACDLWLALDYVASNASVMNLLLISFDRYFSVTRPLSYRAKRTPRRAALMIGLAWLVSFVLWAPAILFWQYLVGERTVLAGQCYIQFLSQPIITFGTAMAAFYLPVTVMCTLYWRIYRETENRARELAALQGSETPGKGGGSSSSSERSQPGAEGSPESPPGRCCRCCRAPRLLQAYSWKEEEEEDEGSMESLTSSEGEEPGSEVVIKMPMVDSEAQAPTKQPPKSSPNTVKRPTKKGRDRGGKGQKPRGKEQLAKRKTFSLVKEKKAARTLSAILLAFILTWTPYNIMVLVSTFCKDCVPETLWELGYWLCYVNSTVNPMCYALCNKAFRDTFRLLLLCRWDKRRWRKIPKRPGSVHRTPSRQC
Method: (§1) Antimuscarinic activity and selectivity were examined in vitro by receptor binding studies in two tissues endowed with M₁ and M₂ muscarinic receptors (cerebral cortex, heart) and in vivo by studying the acid secretion and pepsin inhibition (M₁ response) in comparison with the cardiac and mydriatic effects (M₂ response) in conscious dogs equipped with cronic gastric fistula.
Muscarinic M₁ activity was determined by studying the displacement of ³H-pirenzepine from cerebral cortex homogenate according to the procedure reported below: The cerebral cortex donors were male CD-COOBBS rats, 220-250 g body weight. The homogenization process was carried out in a Potter-Evelhjem apparatus in the presence of Na⁺/Mg⁺⁺ HEPES buffer; pH 7.4 (100 mM NaCl, 10 mM MgCl₂, 20 mM HEPES); by filtering the suspension through two layers of cheesecloth. Binding curves for the under study compounds were derived indirectly from competition experiments against 0.5 nM ³H-pirenzepine labelling the muscarinic receptors of the cerebral cortex. 1 ml of the homogenate was incubated for 45 min at 30°C in the presence of a marker ligand and dif ferent concentrations of the cold ligand, conditions under which equilibrium was reached as determined by appropriate association experiments. The incubation was termination by centrifugation (12,000 rpm for 3 min) at room temperature using an Eppendorf microcentrifuge. The resultant pellet was washed twice with 1.5 ml saline to remove the free radioactivity and the final pellet was allowed to drain. The tips of the tubes containing the pellet were cut off and 200µl of tissue subilizer (Lumasolve, Lumac) were added and left to stand overnight. Radioactivity was then counted after addition of 4 ml of liquid scintillation mixture (Dimilume/Toluene 1:10 v:v, Packard).
Assays were carried out in triplicate or quadruplicate and the non-specific binding was defined as the radioactivity bound or entrapped in the pellet when the incubation medium contained 1 µM atropine sulphate. Non-specific binding avaraged less then 30%. […]

[3] = system: conscious dogs equipped with cronic gastric fistula; assay: Conscious gastric fistula dog in vivo: 2-DG-elicited gastric secretion, heart rate and pupil diameter; design: species or system male Beagle dogs; settings: cumulative i.v. dosing; for Heart rate ED₅₀ (beats/min): dose increasing heart rate by 50 beats per min; for ED₅₀ (agonist 2-DG*) Acid output: dose inhibiting 50% acid output; for ED₅₀ (agonist 2-DG*) Acid output / ED₅₀ (agonist 2-DG*) Pepsin output: secretion elicited by 2-deoxy-D-glucose 100 mg/kg i.v.; for ED₅₀ (agonist 2-DG*) Pepsin output: dose inhibiting 50% pepsin output; for Dose doubling pupil diameter: dose which at least doubled the initial pupil diameter
Method: as §1
Studies were performed in 5 male Beagle dogs (15-22 Kg) with well established gastric fistula. Gastric secretion was elicited by 2-deoxy-D-glucose (2-DG) (100 mg/kg, infused intravenously in 10 min), and collected by gravity drainage at 15 min intervals. […] Each sample was measured for volume (to the nearest 0.1 ml) and acidity (titration of 1 ml sample to pH 7 with NaOH 0.1 N by means of an automatic titrator ITT Radiometer PHM 62); the pepsin content in each 15 min sample was determined on 0.1 ml of gastric juice (diluted 1:20 wich HCl 0.1 N), using the hemoglobin digestion method described by Anson (J.Gen. Phys. 22 ([…]) 79) and expressed in mU Anson.
The compounds were injected intravenously in a cumulative fashion, each dose being administered at 15 min intervals, starting after the peak response was reached. At each dose level, heart rate was measured by a cardiotachometer and pupil diameter scored under constant light. Doses inhibiting 50% (ED₅₀ and their 95% confidence limits) acid and pepsin output and maximal inhibition (I max), were obtained by fractional linear transformation of the data: D/I = aD+b, were D = dose of antagonist; I = % inhibition of acid or pepsin output; I max = 1/a; ED₅₀ = b/a. (Hirschowitz B.I. Am. J. Physiol. 216: 487-489 1969) Doses increasing heart rate by 50 beats per min (ED₅₀ and their 95% confidence limits) were evaluated by linear regression analysis of the data relating dose to effect.
Doses of compound which at least doubled the initial pupil diameter were also determined.

Structure (SMILES) | Kd [1] | Kd [2] | Heart rate ED₅₀ (beats/min) [3] | ED₅₀ (agonist 2-DG*) Acid output [3] | ED₅₀ (agonist 2-DG*) Pepsin output [3] | Dose doubling pupil diameter [3]
CN1CCC(C(=O)C2c3ccccc3NC(=O)c3ccccc32)CC1 (stereo not drawn) [Compound 1, 6,11-dihydro-11-[(1-methyl-4-piperidinyl)-carbonyl]-5H-dibenz[b,e]-azepin-6-one] | 212 nM | 2.1 nM | 204 µg/kg i.v. | 6.2 µg/kg i.v. | 8.0 µg/kg i.v. | 512 µg/kg i.v.
CN1CCC(C(=O)C2c3ccccc3C(=O)Nc3cccc(F)c32)CC1 (stereo not drawn) [Compound 4, 1-fluoro-6,11-dihydro-11-[(1-methyl-4-piperidinyl)-carbonyl]-5H-dibenz[b,e]-azepin-6-one] | 210 nM | 2.2 nM | 191 µg/kg i.v. | 6.1 µg/kg i.v. | 5.3 µg/kg i.v. | 512 µg/kg i.v.
CN1CCC(C(=O)C2c3ccccc3C(=O)Nc3ccc(Cl)nc32)CC1 (stereo not drawn) [Compound 12, 2-chloro-6,11-dihydro-11-[(1-methyl-4-piperidinyl)-carbonyl]-5H-pyrido[2,3b]-benzazepin-6-one] | 279 nM | 3.15 nM | 78 µg/kg i.v. | 7.2 µg/kg i.v. | 6.3 µg/kg i.v. | 320 µg/kg i.v.
